The values that follow come from patent US12365687B2 (Hoffmann-La Roche Inc., priority 2021, dated 2025).

Assay [1] has as its target human GABAA α2β2γ1 receptor (Homo sapiens (Human), UniProt P47869+Q8N1C3). Description: Radioligand binding assay for γ1-containing GABAA subtypes, [3H]RO7239181 competition (α2β2γ1). As for the experimental part:
(§1) The affinity of compounds at GABAA γ1 subunit-containing receptors was measured by competition for [^3H]RO7239181 (67.3 Ci/mmol; Roche) binding to membranes from HEK293F cells (ThermoFisher R79007) expressing human (transiently transfected) receptors of composition α5β2γ1, α2β2γ1, α1β2γ1.
(§2) Harvested pellets from HEK293F cells expressing the different GABAA receptor subtypes were resuspended in Mannitol Buffer pH 7.2-7.4 (Mannitol 0.29 M, Triethylamine 10 mM, Acetic acid 10 mM, EDTA 1 mM plus protease inhibitors (20 tablets Complete, Roche Diagnostics Cat. No. 05 056 489 001 per liter)), washed two times and then resuspended at 1:10 to 1:15 dilution in the same buffer. Cell disruption was performed by stirring the suspension in a Parr vessel #4637 at 435 psi for 15 minutes, and then the suspensions were centrifuged at 1000×g for 15 minutes at 4° C. (Beckman Avanti J-HC; rotor JS-4.2). The supernatant (S1) was transferred in a 2 l Schott flask and the pellet (P1) was resuspended with Mannitol Buffer up to 175 ml. The resuspended pellet was transferred into a 250 ml Corning centrifugal beaker and centrifuged at 1500×g for 10 minutes at 4° C. (Beckman Avanti J-HC; rotor JS-4.2). The supernatant (S1) was then transferred in the 2 l Schott flask and the pellet was discarded. The supernatants (S1) were centrifuged in 500 ml Beckman polypropylene centrifugal beaker at 15′000×g for 30 minutes at 4° C. (Beckman Avanti J-20 XP; rotor JLA-10.500). The pellet (P2) was resuspended with Mannitol Buffer 1:1 and frozen at −80° C. The supernatant (S2) was centrifuged in 100 ml Beckman polypropylene centrifugal tubes at 48000×g for 50 minutes at 4° C. (Beckman Avanti J-20 XP; rotor JA-18). The supernatant (S3) was discarded and the pellet (P3) was resuspended with 1:1 Mannitol Buffer. The P2 and P3 protein concentration was determined with the BIORAD Standard assay method with bovine serum albumin as standard and measured on the NANO-Drop 1000. The membrane suspension was aliquots (500 μl per tube) and stored at −80° C. until required.
(§3) Membrane homogenates were resuspended and polytronised (Polytron PT1200E Kinematica AG) in Potassium Phosphate 10 mM, KCl 100 mM binding buffer at pH 7.4 to a final assay concentration determined with a previous experiment.
(§4) Assays were incubated to equilibrium for 1 hour at 4° C. and then, membranes were filtered onto unifilter (96-well white microplate with bonded GF/C filters preincubated 20-50 minutes in 0.3% Polyethylenimine) with a Filtermate 196 harvester (Packard BioScience) and washed 4 times with cold Potassium Phosphate 10 mM pH 7.4, KCl 100 mM binding buffer. After anhydrousing, filter-retained radioactivity was detected by liquid scintillation counting. Ki values were calculated using Excel-Fit (Microsoft) and are the means of two determinations.

Assay [2] deals with human GABAA α1β3γ2 receptor (Homo sapiens (Human), UniProt P14867+P18507). Description: Radioligand binding assay for γ2-containing GABAA subtypes, [3H]Flumazenil competition (α1β3γ2). The following applies: for γ2/γ1 Selectivity Ratio: Ki α1β3γ2 (nM)/Ki α2β2γ1 (nM); for LogSel: Log[Ki α1β3γ2 (nM)/Ki α2β2γ1 (nM)]. As for the experimental part:
The affinity of compounds at GABAA γ2 subunit-containing receptors was measured by competition for [^3H]Flumazenil (81.1 Ci/mmol; Roche) binding to HEK293F cells expressing human (transiently transfected) receptors of composition α1β3γ2.
Harvested pellets from HEK293F cells expressing the different GABAA γ2 receptor subtypes were resuspended in Mannitol Buffer pH 7.2-7.4 and processed as described above for the cells expressing the GABAA γ1 subunit-containing receptors.
Assays were incubated to equilibrium for 1 hour at 4° C. and harvested onto GF/C uni-filters (Packard) by filtration using a Packard harvester and washing with ice-cold wash buffer (50 mM Tris; pH 7.5). After anhydrousing, filter-retained radioactivity was detected by liquid scintillation counting. Ki values were calculated using Excel-Fit (Microsoft) and are the means of two determinations.

Assay [3] concerns the target α2β2γ1 GABAA receptor subtype (Homo sapiens (Human), UniProt P47869+Q8N1C3). Description: Two-electrode voltage clamp electrophysiology in Xenopus oocytes expressing GABAA receptors (modulation of GABA EC20 current). It counts as cell-based. The conditions noted are these: for Efficacy (GABA)%: % modulation of GABA EC20 = 100*(Fold increase-1), α2β2γ1 oocytes, compound at approx. 30-fold Ki; for Fold increase h-GABA-A α2β2γ1 oocyte @ 30-fold Ki: Xenopus oocytes expressing α2β2γ1, compound at approx. 30-fold its Ki α2β2γ1, GABA EC20 current. As for the experimental part: Xenopus laevis oocytes at maturation stages V-VI were used for the expression of cloned mRNA encoding GABAA receptor subunits. Oocytes ready for RNA micro-injection were bought from Ecocyte, Castrop-Rauxel, Germany and stored in modified Barth's medium (composition in mM: NaCl 88, KCl 1, NaHCO3 2.4, HEPES 10, MgSO4 0.82, CaNO3 0.33, CaCl2 0.33, pH=7.5) at 20° C. until the experiment.
Oocytes were plated in 96-well plates for microinjection using the Roboinject automated instrument (MultiChannelSystems, Reutlingen, Germany). Approximately 50 nL of an aqueous solution containing the RNA transcripts for the subunits of the desired GABAA receptor subtype was injected into each oocyte. […] Oocytes were kept in modified Barth's medium (composition in mM: NaCl 88, KCl 1, NaHCO3 […], HEPES 10, MgSO4 0.82, CaNO3 0.33, CaCl2 0.33, pH=7.5) at 20° C. until the experiment.
Electrophysiological experiments were performed using the Roboocyte instrument (MultiChannelSystems, Reutlingen, Germany) on days 3 to 5 after the micro-injection of mRNA. During the experiment the oocytes were constantly superfused by a solution containing (in mM) NaCl 90, KCl 1, HEPES 5, MgCl2 1, CaCl2 1 (pH 7.4). Oocytes were impaled by two glass microelectrodes (resistance: 0.5-0.8 MΩ) which were filled with a solution containing KCl 1M+K-acetate 1.5 M and voltage-clamped to −80 mV. The recordings were performed at room temperature using the Roboocyte two-electrode voltage clamp system (Multichannelsystem). After an initial equilibration period of 1.5 min GABA was added for 1.5 min at a concentration evoking approximately 20% of a maximal current response (EC20). After another rest interval of 2.5 min GABA was again added evoking a response of similar amplitude and shape. […] Current traces were recorded at a digitization rate of 10 Hz during and shortly before and after the GABA application.
Each compound and concentration was tested on at least 3 oocytes. Different oocytes were used for different compound concentrations.
For the analysis, the digitized current traces of the first and second GABA response were superimposed and, if necessary, rescaled to equal maximal amplitudes. The ratio between the two responses during the time interval of test compound application was calculated point by point. The extremum of the resulting “ratio trace” was taken as the efficacy (“Fold increase”) of the compound expressed as “% modulation of GABA EC20” (100*(Fold increase-1)).
(Two-electrode voltage clamp holds a large cell at a set potential and records current.)

Assay [4] concerns the target human GABAA α5β2γ1 receptor (Homo sapiens (Human), UniProt P31644+Q8N1C3). Description: Radioligand binding assay for γ1-containing GABAA subtypes, [3H]RO7239181 competition (α5β2γ1). As for the experimental part: as §1, §2, §3, §4
[5] abbreviates: Ki h-GABAA α2β2γ1, [3H]RO7239181 competition binding, human GABAA α2β2γ1.
The mark [6] stands for this setting: Ki h-GABAA α2β2γ1, displacement of [3H]RO7239181, membranes of HEK293F cells expressing human receptors, means of two determinations.

The Ki is the dissociation constant of the complex between target and ligand, obtained from inhibition or displacement. A high value points to weaker binding.

Turning to `CO[C@H]1CCN(C(=O)c2nc3n(n2)-c2ccc(Cl)c(Cl)c2C(c2ncccc2F)=N[C@H]3C)C1` [Example 89, [(4S)-7,8-dichloro-6-(3-fluoro-2-pyridyl)-4-methyl-4H-[1,2,4]triazolo[1,5-a][1,4]benzodiazepin-2-yl]-[(3S)-3-methoxypyrrolidin-1-yl]methanone], the inhibition constant (Ki) in assay [1] (setting [5]) amounted to 69.7 nM. The compound also returned a Ki in assay [1] (setting [6]) of 69.7 nM. In addition, in assay [2], the Ki was found to be 6350 nM, the “γ2/γ1 Selectivity Ratio” value came to 91.2 and the LogSel is 1.96. Besides, in assay [3], the “Efficacy (GABA)%” value was 113% and the “Fold increase h-GABA-A α2β2γ1 oocyte @ 30-fold Ki” value was determined as 2.13. The affinity in assay [4], expressed as Ki, was 6.15 nM.

Turning to `C[C@@H]1N=C(c2c(F)cccc2F)c2c(ccc(Cl)c2Cl)-n2nc(C3COC3)nc21` [Example 81, (4S)-7,8-dichloro-6-(2,6-difluorophenyl)-4-methyl-2-(oxetan-3-yl)-4H-[1,2,4]triazolo[1,5-a][1,4]benzodiazepine], affinity in assay [1] (setting [5]) was put at a Ki of 6.4 nM. In assay [1] (setting [6]), this compound returned a Ki of 6.45 nM. In assay [2], the Ki came out at 563 nM, the “γ2/γ1 Selectivity Ratio” value amounted to 87.4 and the LogSel is given as 1.94. Besides, in assay [3], the “Efficacy (GABA)%” value is 53% and the “Fold increase h-GABA-A α2β2γ1 oocyte @ 30-fold Ki” value was 1.53. In assay [4], this compound showed a Ki of 1.63 nM.

As to `C[C@@H]1N=C(c2c(F)cccc2F)c2c(ccc(Cl)c2Cl)-n2nc(C(=O)NCC(F)F)nc21` [Example 59, (4S)-7,8-dichloro-N-(2,2-difluoroethyl)-6-(2,6-difluorophenyl)-4-methyl-4H-[1,2,4]triazolo[1,5-a][1,4]benzodiazepine-2-carboxamide], in assay [1] (setting [5]), affinity was put at a Ki of 7 nM. Also, the affinity in assay [1] (setting [6]), expressed as Ki, was 7 nM. In addition, in assay [2], the Ki came to 640 nM, the “γ2/γ1 Selectivity Ratio” value came to 90.9 and the LogSel is given as 1.96. Moreover, in assay [3], the “Efficacy (GABA)%” value is reported as 74% and the “Fold increase h-GABA-A α2β2γ1 oocyte @ 30-fold Ki” value is 1.74. Further, affinity in assay [4] was put at a Ki of 1.26 nM.

Compound `C[C@@H]1N=C(c2c(F)cccc2F)c2c(ccc(Cl)c2Cl)-n2nc(CO)nc21` [Example 13, [(4S)-7,8-dichloro-6-(2,6-difluorophenyl)-4-methyl-4H-[1,2,4]triazolo[1,5-a][1,4]benzodiazepin-2-yl]methanol] came in with a Ki in assay [1] (setting [5]) of 2.6 nM. Affinity in assay [1] (setting [6]) was put at a Ki of 2.58 nM. Moreover, in assay [2], the Ki came to 368 nM, the “γ2/γ1 Selectivity Ratio” value is given as 142.7 and the LogSel is given as 2.15. In addition, in assay [3], the “Efficacy (GABA)%” value came to 59% and the “Fold increase h-GABA-A α2β2γ1 oocyte @ 30-fold Ki” value is on record as 1.59. Moreover, affinity in assay [4] was put at a Ki of 0.6 nM.

Turning to `C[C@@H]1N=C(c2ncccc2F)c2c(ccc(C(F)(F)F)c2Cl)-n2nc(N3CCOC3=O)nc21` [Example 147, 3-[(4S)-7-chloro-6-(3-fluoro-2-pyridyl)-4-methyl-8-(trifluoromethyl)-4H-[1,2,4]triazolo[1,5-a][1,4]benzodiazepin-2-yl]oxazolidin-2-one], the inhibitory constant (Ki) in assay [1] (setting [5]) stood at 49.3 nM; in assay [1] (setting [6]), 49.4 nM; in assay [2], 12600 nM; in assay [4], 7.44 nM. In addition, in assay [2], the “γ2/γ1 Selectivity Ratio” value is listed as 255.4. Moreover, the LogSel in assay [2] amounted to 2.41. In addition, the “Efficacy (GABA)%” value in assay [3] is listed as 113%. Further, the “Fold increase h-GABA-A α2β2γ1 oocyte @ 30-fold Ki” value in assay [3] is given as 2.13.

With `Cc1cnc2n1-c1ccc(C(F)(F)F)c(Cl)c1C(c1ncccc1F)=N[C@H]2C` [Example 136, (4S)-7-chloro-6-(3-fluoro-2-pyridyl)-1,4-dimethyl-8-(trifluoromethyl)-4H-imidazo[1,2-a][1,4]benzodiazepine], the inhibitory constant (Ki) in assay [1] (setting [5]) came out at 37.5 nM. In assay [1] (setting [6]), this compound gave a Ki of 37.5 nM. For the same compound, in assay [2], the Ki was determined as 6130 nM, the “γ2/γ1 Selectivity Ratio” value was found to be 163.5 and the LogSel is on record as 2.21. In assay [3], the “Efficacy (GABA)%” value is given as 116% and the “Fold increase h-GABA-A α2β2γ1 oocyte @ 30-fold Ki” value turned out to be 2.16. Further, the Ki in assay [4] was determined as 6.22 nM.

As to `O=C(c1nc2n(n1)-c1ccc(Cl)c(Cl)c1C(c1c(F)cccc1F)=NC2)N1CC(O)C1` [Example 24, [7,8-dichloro-6-(2,6-difluorophenyl)-4H-[1,2,4]triazolo[1,5-a][1,4]benzodiazepin-2-yl]-(3-hydroxyazetidin-1-yl)methanone], affinity in assay [1] (setting [5]) was put at a Ki of 3.1 nM. The Ki in assay [1] (setting [6]) turned out to be 3.14 nM. For the same compound, in assay [2], the inhibitory constant (Ki) was 273 nM, the “γ2/γ1 Selectivity Ratio” value is recorded as 86.7 and the LogSel is listed as 1.94. Further, in assay [3], the “Efficacy (GABA)%” value worked out at 88% and the “Fold increase h-GABA-A α2β2γ1 oocyte @ 30-fold Ki” value was determined as 1.88. This compound came in with a Ki in assay [4] of 0.45 nM.

`C[C@@H]1N=C(c2c(F)cccc2F)c2c(ccc(Cl)c2Cl)-n2nc(C(=O)NC[C@@H](C)O)nc21` [Example 65, (4S)-7,8-dichloro-6-(2,6-difluorophenyl)-4-methyl-N-[(2R)-2-hydroxypropyl]-4H-[1,2,4]triazolo[1,5-a][1,4]benzodiazepine-2-carboxamide]: the Ki in assay [1] (setting [5]) is 5.8 nM. In assay [1] (setting [6]), affinity was put at a Ki of 5.8 nM. Besides, in assay [2], the affinity, expressed as Ki, was 492 nM; the “γ2/γ1 Selectivity Ratio” value came to 84.8; the LogSel came out at 1.93. In assay [3], the “Efficacy (GABA)%” value worked out at 80% and the “Fold increase h-GABA-A α2β2γ1 oocyte @ 30-fold Ki” value is 1.80. Further, the affinity in assay [4] corresponds to a Ki of 0.5 nM.
